In US4965280A, “Antifungal carbinols” (E. I. Du Pont de Nemours and Company, priority 1989, dated 1990):
Converted amounts (≈) assume the structure as drawn.

Legend:
[1] = system: Aspergillus fumigatus ATCC 28214; experiment: In vitro antifungal MIC, microtiter broth dilution; conditions: Aspergillus fumigatus, ATCC28214, 24 h, read-out: MIC values, A. fumigatus, 30°, 24 hours
[2] = system: Candida albicans ATCC 11651; experiment: In vitro antifungal MIC, microtiter broth dilution; conditions: Candida albicans, ATCC11651, 24 h, read-out: MIC values, C. albicans, 30°, 24 hours
Method: In vitro activity (Table 5) is expressed in terms of the minimal inhibitory concentration (MIC) of the test compound which inhibits the growth of yeasts and fungi.
The target organisms, Candida albicans ATCC 11651 and Aspergillus fumigatus ATCC 28214 are standardized, [V. Bezjak, J. Clinical Micro., 21 509-512 (1984)], to a concentration of 10^7 organisms/ml and maintained at -70° until use. Test compounds are solubilized in dimethyl sulfoxide (DMSO) and diluted in Eagle's Minimum Essential Medium (EMEM) broth to achieve a final concentration of 200 μg/ml. Stock solutions of standard antifungal agents are stored at -70° and diluted in EMEM as required.
The in vitro assay utilizes a microtiter broth dilution technique [L. Polonelli and G. Morace, Mycopathologia, 86, 21-28 (1984)] and C. […] The appropriate wells are inoculated with the required organism (C. albicans at 1×10^4 organisms/ml and A. fumigatus at 5×10^5 organisms/ml) and the assay incubated at 30° for 24 hours.

Botrytis cinerea = experiment: Example C bean grey mold; format: in vivo; conditions: Botrytis cinerea, 24 h, 100 PPM; read-out: disease control rating, Ex. C
Summary of the method: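 Broad bean seedlings; foliar spray to run-off. Cmpd 100 or 20 ppm in water + 250 ppm TREM 014, acetone 6% v/v final.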

Rhizoctonia solani = experiment: Example F rice sheath blight; format: in vivo; conditions: Rhizoctonia solani, 144 h, 100 PPM; read-out: disease control rating, Ex. F
Summary of the method: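 Spray to run-off on rice seedlings; test suspension 100 or 20 ppm compound in water + 250 ppm TREM 014 surfactant, acetone 6% final volume.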

ANN. BLUEGRASS = experiment: Test E; format: in vivo, PO annua
Pyricularia oryzae = experiment: whole plant or invertebrate; format: in vivo; conditions: Pyricularia oryzae, 120 h, read-out: disease control rating, Ex. E, 100 PPM
Venturia inaequalis = experiment: Example A apple scab; format: in vivo; conditions: 100 PPM, read-out: disease control rating, Ex. A
Summary of the method: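 Acetone solution (6% of final vol.) → suspension at 100 or 20 ppm in water + 250 ppm TREM 014 surfactant; sprayed to run-off on apple seedlings.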

[3] = system: Fusarium oxysporum f. sp. cucumerinum; experiment: Example L cucumber wilt; format: in vivo; conditions: 336 h, 5 kg/ha, read-out: disease control rating, Ex. L
Method: […] Seeds and soil were then inoculated with a mixture of sand, cereal and mycelium of the fungus Fusarium oxysporum f. sp. cucumerinum, causal agent of cucumber wilt, and incubated in a growth chamber at 30° C. for 14 days. Disease ratings were then made.

Puccinia recondita = experiment: Example G wheat leaf rust; format: in vivo; conditions: 100 PPM, read-out: disease control rating, Ex. G
WILD BUCKWHEAT = experiment: Test E; format: in vivo, Polygonum convolvulus
BARNYARDGRASS = experiment: Test C rice paddy; format: in vivo, Echinochloa crusgalli; conditions: Echinochloa crus-galli, 504 h, 21 days, read-out: plant response; for pest or weed control at 64 g/ha: 0064 G/HA; for pest or weed control at 125 g/ha: 0125 G/HA; for pest or weed control at 250 g/ha: 0250 G/HA; for pest or weed control at 500 g/ha: 0500 G/HA
From the text: (§1) Sixteen cm diameter Airlite plastic pots were partially filled with Tama slit loam soil and the soil saturated with water. Japonica and Indica rice seedlings a the 2.0 to 2.5 leaf stage were transplanted into 1/3 of the pots. Into another third of the pots were transplanted seedling or sprouted tubers of water plantain (Alisma trivale), Scripus (Scirpus paludosus), Cyperus (Cyperus esculentus), and arrowhead (Sagittaria spp.). The remaining pots were planted with barnyardgrass (Echinochloa crusgalli) seeds and sprouted tubes of water chestnut (Eleocharis spp.). These weeds all represent major rice weeds or genera of weeds important in rice. Three to four days after planting, the water level was raised to 3 cm (about 1200 ml/pot) and maintained a this level throughout the test. Chemical treatments were applied directly to the paddy water, within 24 hours of raising the water, after being formulated in a nonphytotoxic solvent. The pots were maintained in the greenhouse.

ARROWHEAD = experiment: Test C rice paddy; format: in vivo, Sagittaria spp.; conditions: Sagittaria, 504 h, 21 days, read-out: plant response; for pest or weed control at 64 g/ha: 0064 G/HA; for pest or weed control at 125 g/ha: 0125 G/HA; for pest or weed control at 250 g/ha: 0250 G/HA; for pest or weed control at 500 g/ha: 0500 G/HA
From the text: as §1

WATERCHESTNUT = experiment: Test C rice paddy; format: in vivo, Eleocharis spp.; conditions: Eleocharis, 504 h, 21 days, read-out: plant response; for pest or weed control at 64 g/ha: 0064 G/HA; for pest or weed control at 125 g/ha: 0125 G/HA; for pest or weed control at 250 g/ha: 0250 G/HA; for pest or weed control at 500 g/ha: 0500 G/HA
From the text: as §1

SMILES | MIC [1] | MIC [2] | pest or weed control at 100 ppm (Botrytis cinerea) | pest or weed control at 100 ppm (Rhizoctonia solani) | plant response (ANN. BLUEGRASS; POSTEMERGENCE 0064 GM/HA) | plant response (ANN. BLUEGRASS; POSTEMERGENCE 0125 GM/HA) | plant response (ANN. BLUEGRASS; POSTEMERGENCE 0250 GM/HA) | plant response (ANN. BLUEGRASS; POSTEMERGENCE 0500 GM/HA) | pest or weed control at 100 ppm (Pyricularia oryzae) | pest or weed control at 100 ppm (Venturia inaequalis) | pest or weed control at 100 ppm (Puccinia recondita) | plant response (WILD BUCKWHEAT; POSTEMERGENCE 0064 GM/HA) | plant response (WILD BUCKWHEAT; POSTEMERGENCE 0125 GM/HA) | plant response (WILD BUCKWHEAT; POSTEMERGENCE 0250 GM/HA) | plant response (WILD BUCKWHEAT; POSTEMERGENCE 0500 GM/HA) | pest or weed control at 64 g/ha (BARNYARDGRASS) | pest or weed control at 125 g/ha (BARNYARDGRASS) | pest or weed control at 250 g/ha (BARNYARDGRASS) | pest or weed control at 500 g/ha (BARNYARDGRASS) | pest or weed control at 1000 g/ha (BARNYARDGRASS) | further results
C=C(c1ccccc1)C(O)(Cn1cncn1)c1ccc(F)cc1F (stereo not drawn) [Example 52, 2-(2,4-Difluorophenyl)-3-phenyl-1-(1H-1,2,4-triazol-1-yl)-3-buten-2-ol] | 0.4 µg/mL (≈ 1.22 µM) | 0.03 µg/mL (≈ 0.0916 µM) | 95% | 81% | 30% | 40% | 60% | 70% | 93% | 100% | 100% | 0% | 0% | 0% | 30% |  |  |  |  |  | plant response (ANN. BLUEGRASS; PREEMERGENCE 0250 GM/HA): 100%; pest or weed control at 5000 g/ha [3]: 0%; plant response (WILD BUCKWHEAT; PREEMERGENCE 0250 GM/HA): 20%
C=C(c1ccc(F)cc1)C(O)(Cn1ncnc1I)c1ccc(F)cc1F (stereo not drawn) [Example 1381] |  |  | 97% | 73% |  |  |  |  | 51% | 100% | 100% |  |  |  |  | 55% | 55% | 60% | 100% | 100% | pest or weed control at 5000 g/ha [3]: 0%; pest or weed control at 64 g/ha (ARROWHEAD): 0%; pest or weed control at 125 g/ha (ARROWHEAD): 0%; pest or weed control at 250 g/ha (ARROWHEAD): 0%; pest or weed control at 500 g/ha (ARROWHEAD): 0%; pest or weed control at 1000 g/ha (ARROWHEAD): 0%; pest or weed control at 64 g/ha (WATERCHESTNUT): 0%; pest or weed control at 125 g/ha (WATERCHESTNUT): 0%; pest or weed control at 250 g/ha (WATERCHESTNUT): 0%; pest or weed control at 500 g/ha (WATERCHESTNUT): 0%; pest or weed control at 1000 g/ha (WATERCHESTNUT): 0%
C=C(c1ccc(Cl)cc1Cl)C(O)(Cn1cncn1)c1ccccc1F (stereo not drawn) [Example 107] |  |  |  |  |  |  |  |  |  |  |  |  |  |  |  | 0% | 0% | 40% | 90% | 80% | plant response (ANN. BLUEGRASS; PREEMERGENCE 0250 GM/HA): 20%; pest or weed control at 64 g/ha (ARROWHEAD): 0%; pest or weed control at 125 g/ha (ARROWHEAD): 0%; pest or weed control at 250 g/ha (ARROWHEAD): 0%; pest or weed control at 500 g/ha (ARROWHEAD): 95%; pest or weed control at 1000 g/ha (ARROWHEAD): 70%; pest or weed control at 64 g/ha (WATERCHESTNUT): 0%; pest or weed control at 125 g/ha (WATERCHESTNUT): 0%; pest or weed control at 250 g/ha (WATERCHESTNUT): 40%; pest or weed control at 500 g/ha (WATERCHESTNUT): 60%; pest or weed control at 1000 g/ha (WATERCHESTNUT): 30%; plant response (WILD BUCKWHEAT; PREEMERGENCE 0250 GM/HA): 0%
C=C(c1ccc(F)cc1)C(O)(Cn1cncn1)c1ccc(F)cc1F (stereo not drawn) [Example 4, 2-(2,4-Difluorophenyl)-3-(4-fluorophenyl)-1-(1H-1,2,4-triazol-1-yl)-3-buten-2-ol] | 0.8 µg/mL (≈ 2.32 µM) | 0.03 µg/mL (≈ 0.0869 µM) | 88% | 100% | 0% | 20% | 40% | 60% | 96% | 100% | 100% | 0% | 0% | 40% | 70% |  |  |  |  |  | plant response (ANN. BLUEGRASS; PREEMERGENCE 0500 GM/HA): 100%; plant response (WILD BUCKWHEAT; PREEMERGENCE 0500 GM/HA): 40%
C=C(c1ccc(Cl)cc1)C(O)(Cn1cncn1)c1ccccc1F (stereo not drawn) [Example 669] | 0.8 µg/mL (≈ 2.33 µM) | 0.03 µg/mL (≈ 0.0873 µM) | 90% | 100% |  |  |  |  | 96% | 100% | 100% |  |  |  |  | 90% | 98% | 98% | 90% | 100% | pest or weed control at 64 g/ha (ARROWHEAD): 0%; pest or weed control at 125 g/ha (ARROWHEAD): 0%; pest or weed control at 250 g/ha (ARROWHEAD): 0%; pest or weed control at 500 g/ha (ARROWHEAD): 0%; pest or weed control at 1000 g/ha (ARROWHEAD): 0%; pest or weed control at 64 g/ha (WATERCHESTNUT): 0%; pest or weed control at 125 g/ha (WATERCHESTNUT): 0%; pest or weed control at 250 g/ha (WATERCHESTNUT): 0%; pest or weed control at 500 g/ha (WATERCHESTNUT): 0%; pest or weed control at 1000 g/ha (WATERCHESTNUT): 0%
C=C(c1ccc(F)cc1)C(O)(Cn1ncnc1S)c1ccc(F)cc1F (stereo not drawn) [Example 1304] |  |  | 97% | 88% |  |  |  |  | 78% | 100% | 100% |  |  |  |  | 85% | 100% | 100% | 98% | 100% | pest or weed control at 5000 g/ha [3]: 0%; pest or weed control at 64 g/ha (ARROWHEAD): 0%; pest or weed control at 125 g/ha (ARROWHEAD): 0%; pest or weed control at 250 g/ha (ARROWHEAD): 0%; pest or weed control at 500 g/ha (ARROWHEAD): 0%; pest or weed control at 1000 g/ha (ARROWHEAD): 30%; pest or weed control at 64 g/ha (WATERCHESTNUT): 0%; pest or weed control at 125 g/ha (WATERCHESTNUT): 0%; pest or weed control at 250 g/ha (WATERCHESTNUT): 0%; pest or weed control at 500 g/ha (WATERCHESTNUT): 0%; pest or weed control at 1000 g/ha (WATERCHESTNUT): 50%
C=C(c1ccccc1)C(O)(Cn1cncn1)c1ccc(Cl)cc1 (stereo not drawn) [Example 51, 2-(4-Chlorophenyl)-3-phenyl-1-(1H-1,2,4-triazol-1-yl)-3-buten-2-ol] | 3.2 µg/mL (≈ 9.82 µM) | 0.03 µg/mL (≈ 0.0921 µM) | 96% | 100% | 0% | 0% | 20% | 50% | 0% | 100% | 100% | 0% | 0% | 0% | 0% |  |  |  |  |  | plant response (ANN. BLUEGRASS; PREEMERGENCE 0500 GM/HA): 20%; plant response (WILD BUCKWHEAT; PREEMERGENCE 0500 GM/HA): 0%
C=C(c1ccc(F)cc1)C(O)(Cn1cncn1)c1ccccc1F (stereo not drawn) [Example 644] | 0.4 µg/mL (≈ 1.22 µM) | 0.03 µg/mL (≈ 0.0916 µM) | 94% | 100% | 20% | 50% | 50% | 80% | 100% | 100% | 100% | 0% | 0% | 0% | 0% |  |  |  |  |  | plant response (ANN. BLUEGRASS; PREEMERGENCE 0500 GM/HA): 80%; plant response (WILD BUCKWHEAT; PREEMERGENCE 0500 GM/HA): 30%
